{"source": "paper PMC10653753", "about": "(Emerging Microbes & Infections, 2023)", "key": {"CHIKV [1]": {"test_system": "CHIKV", "conditions": "read-out: 50% inhibitory concentration against CHIKV; Huh-7 cells; cited from earlier work"}, "[2]": {"conditions": "monkeys, 500 mg/kg; cited from earlier work"}, "CHIKV [3]": {"test_system": "CHIKV", "experiment": "Cell-based antiviral efficacy in CHIKV-infected Vero cells, plaque titration", "conditions": "Chikungunya virus, 72 h, read-out: EC50, CHIKV replication"}, "CHIKV [4]": {"test_system": "CHIKV", "conditions": "Vero cells, cited from earlier work"}}, "note": "Like-named read-outs stand apart in the source and are kept apart here.", "data": [{"smiles": "O=c1cc(-c2ccccc2)oc2cc(O)c(O)c(O)c12", "note": "[baicalein]", "values": [{"measurement": "IC50", "setting": "CHIKV [1]", "result": 16.9, "unit": "µM"}, {"measurement": "Toxicity throughout the pharmacokinetic study", "setting": "[2]", "result": "no apparent toxicity"}, {"measurement": "EC50", "setting": "CHIKV [3]", "result": "0.52 ± 0.06", "unit": "µM"}, {"measurement": "50% inhibitory concentration against CHIKV", "setting": "CHIKV [4]", "result": 1.891, "unit": "µg/mL"}, {"measurement": "IC50", "setting": "CHIKV [4]; read-out: 50% inhibitory concentration against CHIKV", "result": 7, "unit": "µM"}]}]}
